What was measured:
KB = test: Dose to inhibit the growth of human KB carcinoma cell line; assay type: functional; details: read-out: ED50 (the source's name)
[1] = biological target: T1, Vacuolar-type proton translocating pyrophosphatase 1 (Trypanosoma brucei) (UniProt Q8MTZ4); test: Ratio of ED50 against KB cell line to that of IC50 of TbVSP1; assay type: functional, cell-based
T1 sequence (whole entry): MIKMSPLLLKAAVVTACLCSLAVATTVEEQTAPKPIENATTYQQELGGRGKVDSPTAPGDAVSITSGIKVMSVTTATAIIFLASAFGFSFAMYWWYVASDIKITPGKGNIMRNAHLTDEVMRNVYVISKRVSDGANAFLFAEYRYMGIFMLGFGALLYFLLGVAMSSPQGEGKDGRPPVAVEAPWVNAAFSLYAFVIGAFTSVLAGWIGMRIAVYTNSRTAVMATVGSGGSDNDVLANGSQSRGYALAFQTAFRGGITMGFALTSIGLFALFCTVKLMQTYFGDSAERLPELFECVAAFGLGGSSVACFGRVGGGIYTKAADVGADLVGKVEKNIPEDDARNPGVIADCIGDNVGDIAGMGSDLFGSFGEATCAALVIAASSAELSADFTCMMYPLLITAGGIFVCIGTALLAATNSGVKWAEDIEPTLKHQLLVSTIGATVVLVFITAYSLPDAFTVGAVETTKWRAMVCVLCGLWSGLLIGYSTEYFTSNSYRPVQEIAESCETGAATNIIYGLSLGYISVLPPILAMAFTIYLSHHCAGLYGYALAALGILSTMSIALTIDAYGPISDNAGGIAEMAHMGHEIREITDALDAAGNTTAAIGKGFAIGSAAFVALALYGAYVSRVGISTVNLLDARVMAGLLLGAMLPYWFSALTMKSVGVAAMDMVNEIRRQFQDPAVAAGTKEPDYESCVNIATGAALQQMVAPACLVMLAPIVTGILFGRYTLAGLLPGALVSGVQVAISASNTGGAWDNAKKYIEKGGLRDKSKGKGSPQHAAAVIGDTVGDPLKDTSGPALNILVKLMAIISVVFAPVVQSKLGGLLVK

Row | SMILES | EC50 (KB) [µM] | TI [1]
1 | O=P(O)(O)C(Nc1cccc(-c2ccccc2)c1)P(=O)(O)O | 749 | 174
2 | O=P(O)(O)C(O)(Cn1ccnc1)P(=O)(O)O [ZOLEDRONIC ACID] | 63.7 | 0.3
3 | O=P(O)(O)C(Nc1ccc2c(c1)CCC2)P(=O)(O)O | 976 | 101
4 | O=P(O)(O)C(O)(Cc1cccc2ccccc12)P(=O)(O)O | 847 | 75
5 | CC(C)c1cccc(C(C)C)c1NC(P(=O)(O)O)P(=O)(O)O | 713 | 28
6 | CN(CCOc1ccccc1)CCC(O)(P(=O)(O)O)P(=O)(O)O | 312 | 1
7 | O=P(O)(O)C(CNc1ccccn1)P(=O)(O)O | 144 | 0.4
8 | O=P(O)(O)C(NC1CCCCCC1)P(=O)(O)O [INCADRONIC ACID] | 166 | 3.7
9 | CCc1cccc(NC(P(=O)(O)O)P(=O)(O)O)n1 | 847 | 15
10 | O=P(O)(O)C(O)(Cc1cccc(F)c1)P(=O)(O)O | 225 | 20
11 | O=P(O)(O)C(O)(Cc1cccc(C(F)(F)F)c1)P(=O)(O)O | 109 | 6.3
12 | O=P(O)(O)C(O)(Cc1cccc(Cl)c1)P(=O)(O)O | 283 | 38
13 | CCCNC(P(=O)(O)O)P(=O)(O)O [(PROPYLAMINO)METHYLENEDIPHOSPHONIC ACID] | 499 | 10
14 | Nc1ccc(CC(O)(P(=O)(O)O)P(=O)(O)O)cc1 | 218 | 4
15 | CCCCCCCCCCCCCCCC(O)(P(=O)(O)O)P(=O)(O)O | 729 | 2.1
16 | CCCCCCCCC(O)(P(=O)(O)O)P(=O)(O)O | 64 | 1.3
17 | CCCCNC(P(=O)(O)O)P(=O)(O)O [(BUTYLAMINO)METHYLENEDIPHOSPHONIC ACID] | 212 | 4.9

Row | SMILES | EC50 (KB) [µM] | TI [1]
18 | CCCCCCCCCC(O)(P(=O)(O)O)P(=O)(O)O | 892 | 2.5
19 | CCCCCC(O)(P(=O)(O)O)P(=O)(O)O | 107 | 10
20 | CC(C)(C)c1cc(NC(P(=O)(O)O)P(=O)(O)O)cc(C(C)(C)C)c1 | 634 | 39
21 | CCc1cccc(NC(P(=O)(O)O)P(=O)(O)O)c1 | 1020 | 423
22 | O=P(O)(O)C(O)(Cc1cccnc1)P(=O)(O)O [RISEDRONIC ACID] | 255 | 0.4
23 | CCCCCCCCCNC(P(=O)(O)O)P(=O)(O)O [(NONYLAMINO)METHYLENEDIPHOSPHONIC ACID] | 919 | 16
24 | CCCCC(O)(P(=O)(O)O)P(=O)(O)O | 1040 | 82
25 | O=P(O)(O)C(Nc1ccc(-c2ccccc2)cc1)P(=O)(O)O | 495 | 1.4
26 | CC(C)c1cccc(NC(P(=O)(O)O)P(=O)(O)O)c1 | 771 | 79
27 | CCn1c2ccccc2c2ccc(NC(P(=O)(O)O)P(=O)(O)O)cc21 | 710 | 19
28 | O=[N+]([O-])c1cccc(CC(O)(P(=O)(O)O)P(=O)(O)O)c1 | 727 | 44
29 | O=P(O)(O)C(Nc1ccc(Cl)cc1Cl)P(=O)(O)O [2,4-DICHLOROPHENYLAMINOMETHYLENEBISPHOSPHONIC ACID] | 728 | 169
30 | Cc1cccc(CC(O)(P(=O)(O)O)P(=O)(O)O)c1 | 0.9 | 0.04
31 | O=P(O)(O)C(Nc1cccc(Cc2ccccc2)c1)P(=O)(O)O | 645 | 14
32 | CCc1ccc(NC(P(=O)(O)O)P(=O)(O)O)cc1 | 257 | 21
33 | O=P(O)(O)C(O)(Cc1cccc(Br)c1)P(=O)(O)O | 228 | 25
34 | CCCCOc1ccc(NC(P(=O)(O)O)P(=O)(O)O)cc1 | 210 | 5.3
